Test: In vitro drug release, pH-profile dialysis bag method
Type: physicochemical
Details: for overall pH-profile percentage release more than NAH-CRG-FU by: difference over 8 hrs
Description: The ultimate goals were to develop a formula with in-soluble gel forming ability in the gastric media with good coherence, to form a sedimented gel with a density >1 in the stomach, to increase the gastric emptying rate and to avoid the gastric adverse effects and metabolism of FU by keeping a minimal gastric release or coating it. On other hand, the formula needed to dissolve and release the drug and gel in the simulated intestinal media, especially the colonic area. The main target was to design a system that was able to inhibit release of the drug in the stomach (i.e., release at a lower rate than the release rate in the intestinal-colonic area). Formulation was prepared according to Table 2 and the pattern of 5-FU release in the pH-profile differed from that of free 5-FU. After preparation of different formulations with manipulation of NA amounts (18, 36 and 72 mg/mL) and CRG types (CRGk and CRGL), the drug release optimization confirmed that the optimum formulation with respect to FU release curve and parameters was the NAH-CRG-FU shown in Table 2 and FIG. 6. […] The comparisons between the release patterns of the NAH-CRG-FU formulation and free drug were done using the simulated gastric release percentage (%)-first 2 hrs, simulated intestinal-colonic release percentage-subsequent 6 hrs (summation of the proximal, distal intestine and colon percentage simulated release patterns), mean dissolution time (MDT) of simulated pre-intestinal region (gastric) and simulated intestine-colonic area. Furthermore, mean dissolution times for 1st 2 hrs of pre-intestinal (Pre-intestinal MDT) and from the 2nd to 8th hr of the release profile (Intestinal-colonic MDT) were obtained by the following equation (Bani-Jaber and Abdullah 2020, Costa and Lobo 2001).
[formula] wherein (i) expressed the release sample numbers, (n) referred to the number of release times, (t) was the mid-point time in the interval (ti-1-ti), (ΔM) was the released amount of drug in the interval (ti-1-ti). The MDT larger values could indicate a slower drug release rate. The predicted rate of release equates to the rate of dissolution, and this rate has a direct effect on the number of daily oral doses and any adverse effects associated therewith.
5-FU was prepared in a formulation of the NAH-CGR-FU gelling nanosuspension, as described in the previous Examples. Data from Table 2 was used to prepare a nanosuspension volume of 20 mL. The dose was loaded into a dialysis bag having a cut-off of 12000-14000 Dalton (Spectra/Por® 4-Dialysis membrane, USA). The dialysis bag was placed into a beaker containing 300 mL of release media. The bags were exposed to 0.1N HCl to simulate gastric media having a pH 1.2 for 2 hr, followed by simulated proximal intestine media, which was a phosphate buffer with pH 6.5 for 2 hr. This was followed by media simulating the media of the distal area of the small intestine, which was a phosphate buffer at a pH 6.8 for 2 hr. Finally, the dialysis bags were transferred to a phosphate buffer media having a pH 8 to simulate the media of a descending colon for 2 hrs. The sequential exposure in the different pH media was used to construct a pH dissolution profile. The temperature was constantly controlled at 37±0.5° C. in a water bath shaker of 75 rpm speed. To maintain sink conditions, the dissolution media underwent total replacement with a fresh medium every hour. After drug release optimization of the NA amount and CRG type was determined, the optimum formulation in-soluble gel that was formed in the acidic media was evaluated for the onset of formation and the extent of sedimentation.

Gastric % Release (0.1N HCl pH 1.2, first 2 hr, 37 C, 75 rpm): 56.60 ± 0.0051%
higher gastric percentage release than NAH-CRG-FU by (difference free 5-FU minus NAH-CRG-FU, first 2 hrs): 31.55%
higher intestinal-colonic percentage release than NAH-CRG-FU by (difference free 5-FU minus NAH-CRG-FU, subsequent 6 hrs): 30.68%
overall pH-profile percentage release more than NAH-CRG-FU by (listed as 5-FU alone): 62.23%
overall pH-profile percentage release more than NAH-CRG-FU by (listed as 5-FU free): 62.2%
Pre-Intestinal MDT (mean dissolution time, 1st 2 hrs, pH 1.2, n = 3 ± SD): 0.23 ± 0.0011 h
Intestinal-Colonic MDT (mean dissolution time, 2nd to 8th hr, pH 6.5, 6.8, 8, n = 3 ± SD): 1.75 ± 0.0051 h
released after 8 hrs of the pH-profile study (pH-profile 1.2-8, 8 hrs): 95.97%
Proximal Intestine % Release (phosphate buffer pH 6.5, 2 hr): 23.04 ± 0.0022%
Distal Intestine % Release (phosphate buffer pH 6.8, 2 hr): 9.08 ± 0.0019%
Colon % Release (phosphate buffer pH 8, 2 hr): 7.26 ± 0.0014%
Intestinal-Colonic % Release (subsequent 6 hrs, summation of proximal, distal intestine and colon): 39.37 ± 0.0071%
Compound: O=c1[nH]cc(F)c(=O)[nH]1 [Free 5-FU, 5-fluorouracil]
